# Reference: patent US20230051589A1, “COMPOUNDS AND COMPOSITIONS FOR TREATING CONDITIONS ASSOCIATED WITH NLRP ACTIVITY” (Novartis AG, priority 2018, published 2023)
# System: IL-1β production in PMA-differentiated THP-1 cells
# Experiment: IL-1β production in PMA-differentiated THP-1 cells stimulated with gramicidin (hTHP-1 assay, 2% fetal bovine serum; Procedures 1-3)
# Format: cell-based, human
# Conditions: Homo sapiens, THP-1, Table B3; hTHP-1 assay containing 2% fetal bovine serum, gramicidin stimulation, IL-1β readout; read-out: hTHP-1 IC50
# Outline: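 PMA-primed THP-1 cells (20 ng/ml PMA, 16-18 h) in RPMI with 2% FBS were pre-incubated with compounds for 1 h, from 100 μM downward in 3-fold steps (0.37% DMSO final), then stimulated with 5 μM gramicidin for 2 h. IL-1β in the supernatant was quantified by HTRF.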
row,Compound,IC50 [µM]
1,"CN(Cc1ccc(S(N)(=O)=NC(=O)Nc2c3c(cc4c2CC4)CCC3)c(F)c1)C1CCC1 (stereo not drawn) [Example 727, 4-((cyclobutyl(methyl)amino)methyl)-2-fluoro-N′-((2,4,5,6-tetrahydro-1H-cyclobuta[f]inden-3-yl)carbamoyl)benzenesulfonimidamide]",1 to 5
2,"NS(=O)(=NC(=O)Nc1c2c(cc3c1CCC3)CCC2)c1ccc(-c2ccccc2CO)s1 (stereo not drawn) [Example 728, N′-((1,2,3,5,6,7-hexahydro-s-indacen-4-yl)carbamoyl)-5-(2-(hydroxymethyl)phenyl)thiophene-2-sulfonimidamide]",0.2 to 1
3,"NS(=O)(=NC(=O)Nc1c2c(cc3c1CC3)CCC2)c1cc2c(s1)CCNC2 (stereo not drawn) [Example 715, N′-((2,4,5,6-tetrahydro-1H-cyclobuta[f]inden-3-yl)carbamoyl)-4,5,6,7-tetrahydrothieno[3,2-c]pyridine-2-sulfonimidamide]",0.04 to 0.2

# Same assay, conditions: Homo sapiens, THP-1, hTHP-1 assay containing 2% fetal bovine serum, Table B2, class symbols; read-out: IC50
row,Compound,IC50 [µM]
1,CC(C)c1cnc(S(N)(=O)=NC(=O)Nc2c3c(cc4c2CCC4)CCC3)c(F)c1 (stereo not drawn) [Compound 903],1 to 5
2,C[C@](O)(CO)c1ncc([S@@](N)(=O)=NC(=O)Nc2c3c(cc4c2CC4)CCC3)s1 [Compound 919e],0.008 to 0.04
3,"CC(C)(O)c1cnc(S(N)(=O)=NC(=O)Nc2c3c(cc4c2CCC4=O)CCC3)s1 (single isomer, unassigned) [Example 589, (R) or (S)-5-(2-hydroxypropan-2-yl)-N′-((1-oxo-1,2,3,5,6,7-hexahydro-s-indacen-4-yl)carbaamoyl) thiazole-2-sulfonimidamide]",1 to 5
4,CCn1ccc(S(N)(=O)=NC(=O)Nc2c3c(cc4c2CCC4)CCC3)n1 (stereo not drawn) [Compound 904],0.2 to 1
5,CN1CCC(c2ccc(S(N)(=O)=NC(=O)Nc3c4c(cc5c3CCC5)CCC4)c(F)c2)C1 (stereo not drawn) [Compound 899],5 to 30
6,"NS(=O)(=NC(=O)Nc1c2c(cc3c1CCC3)CCC2)c1cnn2c1OC[C@H](O)C2 (stereo partly drawn) [Example 441, (6R)-N′-((1,2,3,5,6,7-hexahydro-s-indacen-4-yl)carbamoyl)-6-hydroxy-6,7-dihydro-5H-pyrazolo[5,1-b][1,3]oxazine-3-sulfonimidamide]",0.2 to 1

# Same assay, conditions: Homo sapiens, THP-1, hTHP-1 assay containing 2% fetal bovine serum, Table B2, given as bound; read-out: IC50
row,Compound,IC50 [µM]
1,CC(C)(O)c1ccc([S@@](N)(=O)=NC(=O)Nc2c3c(cc4c2C(=O)CC4)CCC3)cn1 [Compound 804a],> 30

# Same assay, conditions: Table B1; hTHP-1 assay containing 2% fetal bovine serum, gramicidin stimulation, IL-1β readout; read-out: hTHP-1 IC50 (average)
row,Compound,IC50 [µM]
1,"CC(C)c1ccc(S(N)(=O)=NC(=O)Nc2c3c(cc4c2CCC4)CCC3)cn1 (single isomer, unassigned) [Example 402, (S) or (R)-N′-((1,2,3,5,6,7-hexahydro-s-indacen-4-yl)carbamoyl)-6-isopropyl-pyridine-3-sulfonimidamide]",1 to 5

# Same assay, conditions: Table B3; hTHP-1 assay containing 2% fetal bovine serum, gramicidin stimulation, IL-1β readout; read-out: hTHP-1 IC50
row,Compound,IC50 [µM]
1,"CC(NC1CCC1)c1ccc(S(N)(=O)=NC(=O)Nc2c3c(cc4c2CC4)CCC3)c(F)c1 (single isomer, unassigned) [Example 849, (S, S) or (R, S) -4-(1-(cyclobutylamino)ethyl)-2-fluoro-N′-((2,4,5,6-tetrahydro-1H-cyclobuta[f]inden-3-yl)carbamoyl)benzenesulfonimidamide]",5 to 30
2,"NS(=O)(=NC(=O)Nc1c2c(cc3c1CCC3)CCC2)c1ccc([C@H]2CCCN2)s1 (single isomer, unassigned) [Example 824, (S) or (R) -N′-((1,2,3,5,6,7-hexahydro-s-indacen-4-yl)carbamoyl)-5-((R)-pyrrolidin-2-yl)thiophene-2-sulfommidamide]",5 to 30
3,"COCCOC[C@@](C)(O)c1ncc(S(N)(=O)=NC(=O)Nc2c3c(cc4c2CCC4)CCC3)s1 (single isomer, unassigned) [Example 794, (R) or (S)-N′-((1,2,3,5,6,7-hexahydro-s-indacen-4-yl)carbamoyl)-2-((R)-2-hydroxy-1-(2-methoxyethoxy)propan-2-yl)thiazole-5-sulfonimidamide]",0.008 to 0.04
4,"NS(=O)(=NC(=O)Nc1c2c(cc3c1CCC3)CCC2)c1cc2c(s1)CCOC2 (single isomer, unassigned) [Example 790, (S) or (R)-N′-((1,2,3,5,6,7-hexahydro-s-indacen-4-yl)carbamoyl)-6,7-dihydro-4H-thieno[3,2-c]pyran-2-sulfonimidamide]",5 to 30
5,"CC1=CC(C)=[N+]2C1=Cc1ccc(CCC(=O)N(C)Cc3ccc([S@@](=N)(=O)NC(=O)Nc4c5c(cc6c4CCC6)CCC5)cc3)n1[B-]2(F)F [Example 745, (S)-3-(5,5-difluoro-7,9-dimethyl-5H-5λ4,6λ4-dipyrrolo[1,2-c:2′,1′-f][1,3,2]diazaborinin-3-yl)-N-(4-(N′-((1,2,3,5,6,7-hexahydro-s-indacen-4-yl)carbamoyl)sulfamidimidoyl)benzyl)-N-methylpropanamide]",1 to 5
6,"C[C@@](O)(CO)c1ncc(S(N)(=O)=NC(=O)Nc2c3c(cc4c2CC4)CCC3)s1 (single isomer, unassigned) [Example 818, (S) or (R)-2-((R)-1,2-dihydroxypropan-2-yl)-N′-((2,4,5,6-tetrahydro-1H-cyclobuta[f]inden-3-yl)carbamoyl)thiazole-5-sulfonimidamide]",0.2 to 1

# Same assay, conditions: hTHP-1 assay containing 2% fetal bovine serum, Table B2, class symbols; read-out: IC50
row,Compound,IC50 [µM]
1,"NS(=O)(=NC(=O)Nc1c2c(cc3c1CCC3)CCC2)c1ccc(C2CCNC2)cc1F (stereo not drawn) [Example 500, 2-Fluoro-N′-((1,2,3,5,6,7-hexahydro-s-indacen-4-yl)carbamoyl)-4-(pyrrolidin-3-yl)benzenesulfonimidamide]",5 to 30
2,"CNC(C)(C)c1ccc(S(N)(=O)=NC(=O)Nc2c3c(cc4c2CCC4)CCC3)c(F)c1 (single isomer, unassigned) [Example 592, (S) or (R)-2-fluoro-N′-((1,2,3,5,6,7-hexahydro-s-indacen-4-yl)carbamoyl)-4-(2-(methylamino)propan-2-yl) benzenesulfonimidamide]",5 to 30
3,"CC(C)(O)c1cnc(S(N)(=O)=NC(=O)Nc2c3c(cc4c2CCC4O)CCC3)s1 (single isomer, unassigned) [Example 657, (R,R) or (R,S)-N′-((1-hydroxy-1,2,3,5,6,7-hexahydro-5-indacen-4-yl)carbamoyl)-5-(2-hydroxypropan-2-yl)thiazole-2-sulfonimidamide]",1 to 5
4,"CC(C)(O)c1cc(F)c(S(N)(=O)=NC(=O)Nc2c3c(cc4c2C(=O)CC4)CCC3)s1 (single isomer, unassigned) [Example 538, (S) or (R)-3-fluoro-5-(2-hydroxypropan-2-yl)-N′-((3-oxo-1,2,3,5,6,7-hexahydro-s-indacen-4-yl)carbamoyl) thiophene-2-sulfonimidamide]",5 to 30
5,"CN(C)Cc1ccc(S(N)(=O)=NC(=O)Nc2c3c(cc4c2CC4)CC3)cc1 (single isomer, unassigned) [Example 583, (S) or (R)-4-((dimethylamino)methyl)-N′-(tricyclo[6.2.0.03,6]deca-1,3(6),7-trien-2-ylcarbamoyl) benzenesulfonimidamide]",5 to 30
6,"CNCc1csc(S(N)(=O)=NC(=O)Nc2c3c(cc4c2CCC4)CCC3)c1 (single isomer, unassigned) [Example 692, (S) or (R)-N′-((1,2,3,5,6,7-hexahydro-s-indacen-4-yl)carbamoyl)-4-((methylamino)methyl)thiophene-2-sulfonimidamide]",1 to 5

# Same assay, conditions: hTHP-1 assay containing 2% fetal bovine serum, Table B2, given as bound; read-out: IC50
row,Compound,IC50 [µM]
1,"N[S@](=O)(=NC(=O)Nc1c2c(cc3c1CCC3)CCC2)c1ccc(C(F)F)nc1 (single isomer, unassigned) [Example 594, (S) or (R)-6-(difluoromethyl)-N′-((1,2,3,5,6,7-hexahydroxy-indacen-4-yl)carbamoyl) pyridine-3-sulfonimidamide]",> 30
